Where “and” joins values, the source holds several entries; their conditions need not be identical. Equal values may be shown once. Read-outs that look alike come from different tables or passages of the source.
Key:
Experiment in all cases: cell-based
hNav1.4 [1] = target: T1, hNav1.4 (Homo sapiens, UniProt P35499); type: cell-based; details: Table 9; for IC50: IonWorks Quattro, read-out: IC50 (μM) Nav1.4; for Nav1.4/Nav1.7: ratio of IonWorks Quattro IC50 values
hNav1.7 [2] = target: T2, hNav1.7 (Homo sapiens, UniProt Q15858); type: cell-based; details: for IC50: read-out: PX hNav1.7 Tonic IC50
T2 sequence (Q15858 whole entry): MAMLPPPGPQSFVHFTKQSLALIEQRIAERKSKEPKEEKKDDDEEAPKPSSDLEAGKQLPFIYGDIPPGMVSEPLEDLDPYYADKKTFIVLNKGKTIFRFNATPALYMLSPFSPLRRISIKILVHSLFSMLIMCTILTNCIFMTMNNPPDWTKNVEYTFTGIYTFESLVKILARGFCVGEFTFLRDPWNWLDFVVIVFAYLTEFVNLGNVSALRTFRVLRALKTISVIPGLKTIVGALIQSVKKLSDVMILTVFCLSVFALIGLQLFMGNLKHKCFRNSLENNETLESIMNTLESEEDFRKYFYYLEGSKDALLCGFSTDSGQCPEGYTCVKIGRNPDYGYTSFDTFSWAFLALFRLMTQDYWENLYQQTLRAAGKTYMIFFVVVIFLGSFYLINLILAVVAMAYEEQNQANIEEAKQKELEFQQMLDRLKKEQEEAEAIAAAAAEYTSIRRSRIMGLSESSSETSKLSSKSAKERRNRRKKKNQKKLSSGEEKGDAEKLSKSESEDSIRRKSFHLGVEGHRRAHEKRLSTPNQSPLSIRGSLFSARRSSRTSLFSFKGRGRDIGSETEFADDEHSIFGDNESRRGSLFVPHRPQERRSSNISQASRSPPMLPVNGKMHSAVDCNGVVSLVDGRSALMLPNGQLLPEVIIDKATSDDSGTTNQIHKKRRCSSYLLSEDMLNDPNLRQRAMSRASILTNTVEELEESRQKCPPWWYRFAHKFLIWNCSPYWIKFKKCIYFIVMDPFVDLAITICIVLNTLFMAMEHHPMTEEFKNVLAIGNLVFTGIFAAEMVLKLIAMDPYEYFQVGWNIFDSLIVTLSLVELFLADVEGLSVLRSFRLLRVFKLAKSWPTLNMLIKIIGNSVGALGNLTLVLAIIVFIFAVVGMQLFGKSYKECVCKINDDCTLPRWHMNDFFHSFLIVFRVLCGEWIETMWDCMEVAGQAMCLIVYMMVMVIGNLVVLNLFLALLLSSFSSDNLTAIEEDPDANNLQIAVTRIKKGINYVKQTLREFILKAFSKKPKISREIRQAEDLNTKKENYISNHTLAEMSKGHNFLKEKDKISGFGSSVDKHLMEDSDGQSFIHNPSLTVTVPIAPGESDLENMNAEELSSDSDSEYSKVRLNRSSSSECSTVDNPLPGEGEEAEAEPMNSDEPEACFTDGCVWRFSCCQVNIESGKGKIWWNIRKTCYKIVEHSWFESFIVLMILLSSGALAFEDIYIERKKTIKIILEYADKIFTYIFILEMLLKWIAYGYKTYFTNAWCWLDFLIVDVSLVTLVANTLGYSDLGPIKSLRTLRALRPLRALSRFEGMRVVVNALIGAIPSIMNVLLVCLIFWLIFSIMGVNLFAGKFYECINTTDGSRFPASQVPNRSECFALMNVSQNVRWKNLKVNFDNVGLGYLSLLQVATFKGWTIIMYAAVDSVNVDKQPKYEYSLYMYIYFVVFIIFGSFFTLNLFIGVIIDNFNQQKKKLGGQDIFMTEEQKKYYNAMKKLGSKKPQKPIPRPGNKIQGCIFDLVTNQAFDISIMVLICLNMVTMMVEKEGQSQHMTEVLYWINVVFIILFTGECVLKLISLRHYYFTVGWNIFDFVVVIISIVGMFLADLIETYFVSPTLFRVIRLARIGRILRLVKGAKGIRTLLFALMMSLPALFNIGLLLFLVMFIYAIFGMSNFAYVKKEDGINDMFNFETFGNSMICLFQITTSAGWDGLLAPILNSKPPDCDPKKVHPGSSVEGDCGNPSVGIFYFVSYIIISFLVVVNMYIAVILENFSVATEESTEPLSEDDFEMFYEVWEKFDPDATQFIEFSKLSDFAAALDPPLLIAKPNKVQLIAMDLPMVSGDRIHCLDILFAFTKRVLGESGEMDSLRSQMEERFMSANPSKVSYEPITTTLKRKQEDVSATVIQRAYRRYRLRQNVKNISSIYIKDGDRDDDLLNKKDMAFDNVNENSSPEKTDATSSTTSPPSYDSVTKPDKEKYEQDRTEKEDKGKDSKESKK

hNav1.3 = hNav1.3 (Homo sapiens, UniProt Q9NY46); details: IonWorks Quattro; Table 9; read-out: IC50 (μM) Nav1.3
hNav1.5 [3] = target: T3, hNav1.5 (Homo sapiens, UniProt Q14524); details: IonWorks Quattro; Table 9; read-out: IC50 (μM) Nav1.5
hNav1.4 [4] = target: T1, hNav1.4; type: cell-based; details: for Nav1.4/Nav1.7: ratio of PX tonic IC50 values; for IC50: read-out: PX hNav1.4 Tonic IC50
hNav1.5 [5] = target: T3, hNav1.5; details: for Nav1.5/Nav1.7: ratio of PX tonic IC50 values; for IC50: read-out: PX hNav1.5 Tonic IC50
hNav1.6 = hNav1.6 (Homo sapiens, UniProt Q9UQD0); type: cell-based; details: Table 15; for Nav1.6/Nav1.7: ratio of PX tonic IC50 values; for IC50: read-out: PX hNav1.6 Tonic IC50
Sequence of hNav1.6 (Q9UQD0 whole entry): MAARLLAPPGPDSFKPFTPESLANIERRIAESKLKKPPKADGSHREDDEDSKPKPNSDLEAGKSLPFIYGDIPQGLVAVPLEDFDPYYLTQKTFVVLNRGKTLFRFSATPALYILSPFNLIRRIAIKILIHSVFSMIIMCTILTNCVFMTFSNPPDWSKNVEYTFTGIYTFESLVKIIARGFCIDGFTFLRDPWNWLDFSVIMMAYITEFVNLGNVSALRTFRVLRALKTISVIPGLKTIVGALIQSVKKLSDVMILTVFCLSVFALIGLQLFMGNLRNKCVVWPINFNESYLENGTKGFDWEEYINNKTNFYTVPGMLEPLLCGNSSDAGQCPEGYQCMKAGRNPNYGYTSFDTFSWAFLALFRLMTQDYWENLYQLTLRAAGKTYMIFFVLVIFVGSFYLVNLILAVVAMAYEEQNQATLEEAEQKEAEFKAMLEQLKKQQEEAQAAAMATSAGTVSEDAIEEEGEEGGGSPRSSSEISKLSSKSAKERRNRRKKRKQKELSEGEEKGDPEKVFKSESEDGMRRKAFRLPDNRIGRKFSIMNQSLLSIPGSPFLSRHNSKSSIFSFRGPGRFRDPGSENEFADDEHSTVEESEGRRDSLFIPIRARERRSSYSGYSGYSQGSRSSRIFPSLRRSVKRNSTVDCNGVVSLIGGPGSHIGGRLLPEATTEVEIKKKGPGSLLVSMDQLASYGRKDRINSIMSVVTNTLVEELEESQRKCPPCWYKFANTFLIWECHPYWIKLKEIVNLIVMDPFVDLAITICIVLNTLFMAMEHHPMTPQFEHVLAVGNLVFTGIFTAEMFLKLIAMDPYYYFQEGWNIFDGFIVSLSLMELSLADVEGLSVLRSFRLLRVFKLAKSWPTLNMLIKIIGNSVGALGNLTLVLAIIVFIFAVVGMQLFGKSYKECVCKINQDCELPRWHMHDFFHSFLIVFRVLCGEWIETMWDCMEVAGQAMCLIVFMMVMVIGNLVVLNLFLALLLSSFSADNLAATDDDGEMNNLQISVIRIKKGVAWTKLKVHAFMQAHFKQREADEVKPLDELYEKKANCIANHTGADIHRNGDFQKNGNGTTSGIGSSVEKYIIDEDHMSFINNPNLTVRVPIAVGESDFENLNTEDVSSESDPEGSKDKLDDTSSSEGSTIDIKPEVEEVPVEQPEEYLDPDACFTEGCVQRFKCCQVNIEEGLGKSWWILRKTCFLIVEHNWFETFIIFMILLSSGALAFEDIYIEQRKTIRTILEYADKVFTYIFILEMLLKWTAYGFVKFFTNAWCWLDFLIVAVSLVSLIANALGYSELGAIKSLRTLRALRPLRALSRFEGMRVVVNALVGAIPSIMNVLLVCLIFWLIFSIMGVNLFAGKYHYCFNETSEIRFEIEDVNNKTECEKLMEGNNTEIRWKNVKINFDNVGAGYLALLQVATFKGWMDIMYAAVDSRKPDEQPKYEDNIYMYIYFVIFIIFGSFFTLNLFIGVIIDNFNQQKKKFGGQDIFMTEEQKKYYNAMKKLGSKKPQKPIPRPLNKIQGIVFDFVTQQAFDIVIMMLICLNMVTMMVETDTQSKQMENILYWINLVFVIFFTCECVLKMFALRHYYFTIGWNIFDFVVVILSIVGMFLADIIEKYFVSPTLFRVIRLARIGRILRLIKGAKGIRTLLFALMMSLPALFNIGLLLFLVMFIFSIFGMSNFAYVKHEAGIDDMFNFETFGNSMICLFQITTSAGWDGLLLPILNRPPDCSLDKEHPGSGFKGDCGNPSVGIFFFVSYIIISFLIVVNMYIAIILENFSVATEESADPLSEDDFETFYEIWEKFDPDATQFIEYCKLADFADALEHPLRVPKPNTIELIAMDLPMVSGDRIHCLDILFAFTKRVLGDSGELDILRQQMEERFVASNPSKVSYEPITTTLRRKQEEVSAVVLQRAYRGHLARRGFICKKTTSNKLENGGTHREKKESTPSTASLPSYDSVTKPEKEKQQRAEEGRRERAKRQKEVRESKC

mNav1.7 = mNav1.7 (Mus musculus, UniProt Q62205)
hNav1.7 [6] = target: T2, hNav1.7; details: IonWorks Quattro; […]; read-out: IC50 (μM) Nav1.7
[7] = ratio of PX tonic IC50 values, Table 11
[8] = Table 12, PatchXpress, tonic block

SMILES	IC50 (hNav1.4 [1])	Nav1.4/Nav1.7 (hNav1.4 [1])	IC50 (hNav1.7 [2])	IC50 (hNav1.3)	IC50 (hNav1.5 [3])	Nav1.4/Nav1.7 (hNav1.4 [4]; Table 13)	IC50 (hNav1.4 [4])	Nav1.5/Nav1.7 (hNav1.5 [5]; Table 13)	IC50 (hNav1.5 [5])	Nav1.6/Nav1.7 (hNav1.6)	further results
CCCC[C@@H]1NC(=O)[C@H](Cc2c[nH]c3ccccc23)NC(=O)[C@H](CCCCN)NC(=O)[C@H](CCC(N)=O)NC(=O)[C@@H](NC(=O)[C@@H](N)Cc2cn(CCCOCCOCCOCCOCCOCCOCCOCCOCCOCCOCCN)nn2)CSSC[C@@H]2NC(=O)[C@@H]3CSSC[C@@H](C(=O)N[C@@H](CCCNC(=N)N)C(=O)N[C@@H](CCCCN)C(=O)N[C@H](C(=O)N[C@H](C(N)=O)[C@@H](C)CC)[C@@H](C)CC)NC(=O)[C@H](Cc4c[nH]c5ccccc45)NC(=O)[C@H](CC(C)C)NC(=O)[C@H](CCCCN)NC(=O)[C@H](CSSC[C@H](NC(=O)[C@H]([C@@H](C)O)NC(=O)[C@H](Cc4c[nH]c5ccccc45)NC1=O)C(=O)N[C@@H](CC(=O)O)C(=O)N[C@@H](CO)C(=O)N[C@@H](CCCCN)C(=O)N[C@@H](CCCNC(=N)N)C(=O)N[C@@H](C)C(=O)N3)NC(=O)[C@H](CCCNC(=N)N)NC(=O)[C@H](CC(C)C)NC(=O)CNC(=O)[C@H](CCC(=O)O)NC2=O [compound 248]	0.39 µM and 0.45 µM	4 and 3	1 nM	0.16 µM and 0.13 µM	> 7 µM	15	15 nM	946	950 nM	–	–
CCCC[C@@H]1NC(=O)[C@H](Cc2c[nH]c3ccccc23)NC(=O)[C@H](CCCCN)NC(=O)[C@H](CCC(N)=O)NC(=O)[C@@H](NC(=O)[C@H](Cc2ccc(O)cc2)NC(=O)[C@@H](N)CCC(=O)O)CSSC[C@@H]2NC(=O)[C@@H]3CSSC[C@@H](C(=O)N[C@@H](CCCNC(=N)N)C(=O)N[C@@H](CCCCN)C(=O)N[C@@H](CCC(=O)O)C(=O)N[C@H](C(N)=O)[C@@H](C)CC)NC(=O)[C@H](Cc4c[nH]c5ccccc45)NC(=O)[C@H](CC(C)C)NC(=O)[C@H](CCCCN)NC(=O)[C@H](CSSC[C@H](NC(=O)[C@H]([C@@H](C)O)NC(=O)[C@H](Cc4c[nH]c5ccccc45)NC1=O)C(=O)N[C@@H](CC(=O)O)C(=O)N[C@@H](CO)C(=O)N[C@@H](CCCCN)C(=O)N[C@@H](CCCNC(=N)N)C(=O)N[C@@H](C)C(=O)N3)NC(=O)[C@H](CCCNC(=N)N)NC(=O)[C@H](CC(C)C)NC(=O)CNC(=O)[C@H](CCC(=O)O)NC2=O [compound 708]	–	–	–	–	–	–	–	–	–	682	IC50 (hNav1.6): 522 nM; IC50 (hNav1.7 [2]; PatchXpress, tonic, Table 11): 0.765 nM; Nav1.4/Nav1.7 (hNav1.7 [2]; [7]): 130; Nav1.5/Nav1.7 (hNav1.7 [2]; [7]): 9941; IC50 (hNav1.4 [4]; PatchXpress, tonic, Table 11): 99.2 nM; IC50 (hNav1.5 [5]; PatchXpress, tonic, Table 11): 7600 nM
CCCC[C@@H]1NC(=O)[C@H](Cc2c[nH]c3ccccc23)NC(=O)[C@H](CCCCN)NC(=O)[C@H](CCC(N)=O)NC(=O)[C@@H](NC(=O)[C@H](Cc2ccc(O)cc2)NC(=O)[C@@H](N)Cc2c[nH]c3ccccc23)CSSC[C@@H]2NC(=O)[C@@H]3CSSC[C@@H](C(=O)N[C@@H](CCCNC(=N)N)C(=O)N[C@@H](CCCCN)C(=O)N[C@H](C(=O)N[C@H](C(N)=O)[C@@H](C)CC)[C@@H](C)CC)NC(=O)[C@H](Cc4c[nH]c5ccccc45)NC(=O)[C@H](CC(C)C)NC(=O)[C@H](CCCCN)NC(=O)[C@H](CSSC[C@H](NC(=O)[C@H]([C@@H](C)O)NC(=O)[C@H](Cc4c[nH]c5ccccc45)NC1=O)C(=O)N[C@@H](CC(=O)O)C(=O)N[C@@H](CO)C(=O)N[C@@H](CCCCN)C(=O)N[C@@H](CCCNC(=N)N)C(=O)N[C@@H](C)C(=O)N3)NC(=O)[C@H](CCCNC(=N)N)NC(=O)[C@H](CC(C)C)NC(=O)CNC(=O)[C@H](CCC(=O)O)NC2=O [Trp-[Nle6]JzTx-V(1-29)]	–	–	–	–	–	–	–	–	–	–	IC50 (mNav1.7; PatchXpress, tonic block, mouse Nav1.7, read-out: PX mNav1.7 Tonic IC50): 1.34 nM; mNav1.7/hNav1.7 (mNav1.7; ratio of PX tonic IC50, mouse Nav1.7 over human Nav1.7): 4.07; IC50 (hNav1.7 [2]; PatchXpress, tonic block, human Nav1.7): 0.33 nM
CCCC[C@@H]1NC(=O)[C@H](Cc2c[nH]c3ccccc23)NC(=O)[C@H](CCCCN)NC(=O)[C@H](CCC(N)=O)NC(=O)[C@@H](NC(=O)[C@@H](N)Cc2ccc(O)cc2)CSSC[C@@H]2NC(=O)[C@@H]3CSSC[C@@H](C(=O)N[C@@H](CCCNC(=N)N)C(=O)N[C@@H](CCCCN)C(=O)N[C@H](C(=O)N[C@H](C(N)=O)[C@@H](C)CC)[C@@H](C)CC)NC(=O)[C@H](Cc4c[nH]c5ccccc45)NC(=O)[C@H](CC(C)C)NC(=O)[C@H](CCCCN)NC(=O)[C@H](CSSC[C@H](NC(=O)[C@H]([C@@H](C)O)NC(=O)[C@H](Cc4c[nH]c5ccccc45)NC1=O)C(=O)N[C@@H](CC(=O)O)C(=O)N[C@@H](Cc1cn(CCCOCCOCCOCCOCCOCCOCCOCCOCCOCCOCCN)nn1)C(=O)N[C@@H](CCCCN)C(=O)N[C@@H](CCCNC(=N)N)C(=O)N[C@@H](C)C(=O)N3)NC(=O)[C@H](CCCNC(=N)N)NC(=O)[C@H](CC(C)C)NC(=O)CNC(=O)[C@H](CCC(=O)O)NC2=O [compound 256]	0.4 µM and 0.5 µM	4	9.3 nM	0.2 µM and 0.4 µM	> 5 µM	3	27 nM	200	1860 nM	–	–
CCCC[C@@H]1NC(=O)[C@H](Cc2c[nH]c3ccccc23)NC(=O)[C@H](CCCCN)NC(=O)[C@H](CCC(N)=O)NC(=O)[C@@H](NC(=O)[C@H](Cc2ccc(O)cc2)NC(=O)[C@@H](N)Cc2cn(CCCOCCOCCOCCOCCOCCOCCOCCOCCOCCOCCN)nn2)CSSC[C@@H]2NC(=O)[C@@H]3CSSC[C@@H](C(=O)N[C@@H](CCCNC(=N)N)C(=O)N[C@@H](CCCCN)C(=O)N[C@H](C(=O)N[C@H](C(N)=O)[C@@H](C)CC)[C@@H](C)CC)NC(=O)[C@H](Cc4c[nH]c5ccccc45)NC(=O)[C@H](CC(C)C)NC(=O)[C@H](CCCCN)NC(=O)[C@H](CSSC[C@H](NC(=O)[C@H]([C@@H](C)O)NC(=O)[C@H](Cc4c[nH]c5ccccc45)NC1=O)C(=O)N[C@@H](CC(=O)O)C(=O)N[C@@H](CO)C(=O)N[C@@H](CCCCN)C(=O)N[C@@H](CCCNC(=N)N)C(=O)N[C@@H](C)C(=O)N3)NC(=O)[C@H](CCCNC(=N)N)NC(=O)[C@H](CC(C)C)NC(=O)CNC(=O)[C@H](CCC(=O)O)NC2=O [compound 247]	0.15 µM	2	6 nM	0.13 µM	4.3 µM	1	8 nM	629	3770 nM	–	IC50 (hNav1.7 [6]): 0.07 µM
C#CC[C@H](N)C(=O)N[C@@H](CCC(=O)O)C(=O)N[C@H]1CSSC[C@@H]2NC(=O)[C@@H]3CSSC[C@@H](C(=O)N[C@@H](CCCNC(=N)N)C(=O)N[C@@H](CCCCN)C(=O)N[C@@H](CCC(=O)O)C(=O)N[C@H](C(N)=O)[C@@H](C)CC)NC(=O)[C@H](Cc4c[nH]c5ccccc45)NC(=O)[C@H](CC(C)C)NC(=O)[C@H](CCCCN)NC(=O)[C@H](CSSC[C@H](NC(=O)[C@H]([C@@H](C)O)NC(=O)[C@H](Cc4c[nH]c5ccccc45)NC(=O)[C@H](CCCC)NC(=O)[C@H](Cc4c[nH]c5ccccc45)NC(=O)[C@H](CCCCN)NC(=O)[C@H](CCC(N)=O)NC1=O)C(=O)N[C@@H](CC(=O)O)C(=O)N[C@@H](CO)C(=O)N[C@@H](CCCCN)C(=O)N[C@@H](CCCNC(=N)N)C(=O)N[C@@H](C)C(=O)N3)NC(=O)[C@H](CCCNC(=N)N)NC(=O)[C@H](CC(C)C)NC(=O)CNC(=O)[C@H](CCC(=O)O)NC2=O [compound 709]	–	–	–	–	–	–	–	–	–	518	IC50 (hNav1.6): 584 nM; IC50 (hNav1.7 [2]; [8]): 1.13 nM; IC50 (hNav1.4 [4]; [8]): 185 nM; Nav1.4/Nav1.7 (hNav1.4 [4]; Table 12): 164; IC50 (hNav1.5 [5]; [8]): > 1000 nM; Nav1.5/Nav1.7 (hNav1.5 [5]; Table 12): >887
C#CC[C@H](N)C(=O)N[C@@H](Cc1ccc(O)cc1)C(=O)N[C@H]1CSSC[C@@H]2NC(=O)[C@@H]3CSSC[C@@H](C(=O)N[C@@H](CCCNC(=N)N)C(=O)N[C@@H](CCCCN)C(=O)N[C@@H](CCC(=O)O)C(=O)N[C@H](C(N)=O)[C@@H](C)CC)NC(=O)[C@H](Cc4c[nH]c5ccccc45)NC(=O)[C@H](CC(C)C)NC(=O)[C@H](CCCCN)NC(=O)[C@H](CSSC[C@H](NC(=O)[C@H]([C@@H](C)O)NC(=O)[C@H](Cc4c[nH]c5ccccc45)NC(=O)[C@H](CCCC)NC(=O)[C@H](Cc4c[nH]c5ccccc45)NC(=O)[C@H](CCCCN)NC(=O)[C@H](CCC(N)=O)NC1=O)C(=O)N[C@@H](CC(=O)O)C(=O)N[C@@H](CCC(=O)O)C(=O)N[C@@H](CCCCN)C(=O)N[C@@H](CCCNC(=N)N)C(=O)N[C@@H](C)C(=O)N3)NC(=O)[C@H](CCCNC(=N)N)NC(=O)[C@H](CC(C)C)NC(=O)CNC(=O)[C@H](CCC(=O)O)NC2=O [compound 714]	–	–	–	–	–	–	–	–	–	737	Nav1.4/Nav1.7 (hNav1.4 [4]; Table 12): 241; Nav1.5/Nav1.7 (hNav1.5 [5]; Table 12): >6341
